Test [1] relates to Colo205-LUC-TCF/LEF M1 reporter cell line (Wnt pathway). In words: Colo205-LUC-TCF/LEF M1 reporter gene (luciferase) inhibition. In kind it is cell-based. The conditions noted are these: 4 hours incubation, luciferase readout. The source says: Colo205 cell line (Cell Bank of Chinese Academy of Sciences, Cat #TCHu102) was purchased from the Cell Bank of Chinese Academy of Sciences. After expansion and subculture, in the exponential growth phase of the cells, transfection with lipo3000 liposome transfection with TCF/LEF transcription factors Driven luciferase reporter plasmid (Promega). […] The plasmid carries a resistance gene for resistance screening. Transfection was carried out in 10 cm culture dishes using conventional complete medium without resistance. After 2 days, the medium with resistance was replaced, and the culture was continued. After that, the resistant medium was replaced every 2 days, and the suspended cells were discarded. The original medium was centrifuged to remove cells and debris and retained as an adaptive medium. When the cells covered the culture dish, the cells were digested, counted, and passaged in a 96-well plate, so that the average number of cells contained in each well was 1.5/well, and the adaptive medium was used for passage. The rest of the cells were frozen. After subculture, culture for 4 hours to allow the cells to adhere to the wall, and then observe the number of cells in each well under a microscope. Wells with only 1 cell per well were labeled as monoclonal wells. Afterwards, normal culture was performed, and the culture medium was replaced every 2 days, and observed. There are holes where the monoclonal cells continue to grow in the early stage, and they are labeled twice, and can be replaced with normal resistant medium. When a monoclonal well was overgrown with a 96-well plate, it is digested and passaged to a 24-well culture plate. After the 24-well plate is overgrown, it is passaged to a 96-well plate and a 6-well plate. The cells in a 96-well plate are at least 6 wells, of which 3 wells were added with known Wnt inhibitors, and the other 3 wells were not treated. After 24 hours, the cells in the 96-well plate were added with a fluorescence detection reagent to detect the fluorescence intensity. Cell lines with fluorescent expression when not treated and decreased fluorescent light after inhibition were selected and further cultured. The Colo205-LUC-TCF/LEF-M1 cell line is one of the cell lines screened above. Its growth curve, cell shape, and cell growth state are similar to those of the original Colo205 cells, and the ratio of the fluorescent signals of the inhibitor-treated and untreated cells is the largest among all cell lines, and the ratio can reach 4-5 times when inhibited at 4 hours, which was completely suitable for the screening of Wnt inhibitors in the later stage.
The Colo205-LUC-TCF/LEF M1 cell line is a reporter tool cell stably transfected with the pGL4.49-LUC2-TCF/LEF vector. The β-catenin Wnt pathway is continuously activated. After adding the inhibitor, the Wnt pathway is inhibited. The expression of firefly luciferase regulated by the[…] cis-element decreased, and after adding the detection substrate, the detected light signal decreased accordingly, so as to detect the inhibitory effect of the compound.
To a 96-well cell culture plate, add 100 uL of the compound with a maximum concentration of 20 uM to each well, and make a 3-fold serial dilution of the compound concentration. Then 10,000 colo205 cells stably transfected with the reporter gene and 100 uL medium were inoculated into each well, and corresponding positive and negative control wells were made at the same time. Put the cells in a 5% CO2 incubator and incubate at 37° C. for 4 hours. After 4 hours, remove the culture medium, add 100 uL of reagent (Promega) containing the corresponding firefly luciferase substrate to each well, and measure the activity of luciferase reporter gene. Luminescence intensity was read with SpectraMax in full wavelength mode. […]
(In a reporter assay the amount or activity of a reporter protein is the signal.)

The test system of test [2] is Colo205. The experiment in a line: Proliferation inhibition, Wnt mutant cell line Colo205. The test is classed as cell-based. The conditions noted are these: Homo sapiens, COLO 205; Colo205, Wnt pathway-dependent, 96 hours; read-out: Antiproliferative IC50 Colo205. From the text:
(§1) The cell lines used in the experiment are Colo205 and DU4475 cell lines whose Wnt pathway is continuously activated and whose proliferation is Wnt pathway-dependent; while the BELA and RKO cell lines, whose Wnt pathway is not activated under normal circumstances and the proliferation is independent of Wnt pathway, as control cell lines. It is Judged that the inhibitory effect of the compound of the present invention on Wnt-dependent proliferation is not caused by other non-specific toxicity.
(§2) Treat the Colo205, Du4475, HELA and RKO cell lines cultured in their respective mediums in the logarithmic growth phase, collect the cells and prepare a uniform cell suspension of known concentration, and then add it to the 96-well cell culture plate Cell suspension, so that each well contains 1000 cells. Put it into a 5% CO2 incubator and incubate at 37° C. for 20-24 h. On the second day, the fully dissolved, 3-fold serially diluted compound was added to each cell culture well, so that the final maximum concentration in the cell culture well was 20 uM, and the culture was continued for 96 hours. In this test, Promega's cell viability detection test is used for detection. The more the cells proliferate, the stronger the final signal intensity will be. The detection instrument is SpectraMax, full wavelength mode. The wells only added with DMSO were used as positive control wells, and the wells that were not inoculated with cells were used as negative control wells. […] The IC50 value of cell proliferation inhibition was used to evaluate the inhibitory effect of the compound on the Wnt pathway and the toxic effect on normal cells (Table 2).

Test [3] concerns RKO. The experiment in a line: Proliferation inhibition, non-Wnt mutant control cell line RKO. The conditions noted are these: Homo sapiens, Wnt-independent control cell line, 96 hours, read-out: Antiproliferative IC50 RKO. In kind it is cell-based.
Description: as §1, §2

The subject of test [4] is HepG2. In words: Proliferation inhibition, HepG2 cell line. In kind it is cell-based. The conditions noted are these: Homo sapiens; HepG2 cells, 96 hours culture, cell viability detection; read-out: Antiproliferative IC50 HepG2. The source says:
(§3) The cell lines used in the test are NCI-H929 and HepG2 cell lines whose Wnt pathway is continuously activated and whose proliferation is Wnt pathway-dependent; the inhibitory effect of the compound of the present invention on Wnt-dependent proliferation is judged.
(§4) Treat the NCI-H929 and HepG2 cell lines cultured in their respective mediums in the logarithmic growth phase, collect the cells and prepare a uniform cell suspension of known concentration, and then add the cell suspension to the 96-well cell culture plate solution so that each well contains 4000 cells. Put it into a […] incubator and incubate at 37° C. for 20-24 h. On the second day, the fully dissolved, 3-fold serially diluted compound was added to each cell culture well, so that the final maximum concentration in the cell culture well was 20 uM, and the culture was continued for 96 hours. In this test, Promega's cell viability detection test is used for detection. The more the cells proliferate, the stronger the final signal intensity will be. The detection instrument is SpectraMax, full wavelength mode. The wells only added with DMSO were used as positive control wells, and the wells that were not inoculated with cells were used as negative control wells. […] The IC50 value of cell proliferation inhibition was used to evaluate the inhibitory effect of the compound on the Wnt pathway and the toxic effect on normal cells (Table 3).

Test [5] deals with NCI-H929. The experiment in a line: Proliferation inhibition, NCI-H929 cell line. In kind it is cell-based, human. The conditions noted are these: Homo sapiens; NCI-H929 cells, 96 hours culture, cell viability detection; read-out: Antiproliferative IC50 NCI-H929.
Description: as §3, §4

The test system of test [6] is DU4475. In words: Proliferation inhibition, Wnt mutant cell line DU4475. In kind it is cell-based. The conditions noted are these: Homo sapiens, DU-4475; DU4475, Wnt pathway-dependent, 96 hours; read-out: Antiproliferative IC50 DU4475.
Description: as §1, §2

The IC50 is the concentration that inhibits the measured activity by half. Consider `CN1c2nc(NCc3ccc(Oc4ccc(C(F)(F)F)nc4)nc3)nc3c2N(CCC3)C(=O)C1CC(F)(F)F` (stereo not drawn) [189 (W306)], for which the IC50 in test [1] is 17 nM; in test [2], 8.5 nM; in test [3], over 10000 nM; in test [4], 3.5 nM.
Take `CC(C)N1c2nc(NCc3ccc(Oc4cnc(C(F)(F)F)nc4)nc3)nc3c2N(CCC3)C(=O)[C@@H]1C` [170 (W368)]: the IC50 in test [1] was 17 nM; in test [2] it was 7 nM; in test [3] it was over 10000 nM; in test [5], 94 nM; in test [4] it was 31 nM.
On to `Cc1cc(CNc2nc3c4c(n2)N(C)[C@@H](C)C(=O)N4CCC3)cnc1Oc1ccc(C(F)(F)F)nc1` [103 (W195)], for which the IC50 was 36 nM in test [1]; 19 nM in test [2]; 11 nM in test [6]; over 10000 nM in test [3]; 68 nM in test [4].
Turning to `CCn1nc(C(F)(F)F)cc1Oc1ccc(CNc2nc3c4c(n2)N(C)[C@@](C)(CO)C(=O)N4CCC3)cn1` [204 (W374)], the IC50 is 25 nM in test [1]; 9.6 nM in test [2]; over 10000 nM in test [3]; 60 nM in test [5]; 12 nM in test [4].
On to `[2H]C([2H])([2H])N1c2nc(NCc3ccc(Oc4ccc(C(F)(F)F)nc4)nc3)nc3c2N(CCC3)C(=O)C1CC(F)(F)F` (stereo not drawn) [195 (W323)], for which the IC50 in test [1] is 22 nM; in test [2], 2.1 nM; in test [3] it was over 10000 nM; in test [5], 19 nM; in test [4], 4 nM.
As for `C[C@H]1C(=O)N2CCCc3nc(NCc4cnc(Oc5ccc(C(F)(F)F)nc5)c(C#N)c4)nc(c32)N1C` [238 (W426)], the IC50 in test [1] is 27.3 nM; in test [2], 24.6 nM; in test [3], over 10000 nM; in test [4], 25.8 nM.
Turning to `COC[C@@]1(C)C(=O)N2CCCc3nc(NCc4ccc(Oc5ccc(C(F)(F)F)nc5)nc4)nc(c32)N1C` [179 (W375)], the IC50 in test [1] was 23 nM; in test [3], over 10000 nM; in test [5], 45 nM; in test [4], 11 nM.
Consider `CN1c2nc(NCc3ccc(Oc4cc(C(F)(F)F)nn4C4CCOC4)nc3)nc3c2N(CCC3)C(=O)[C@]1(C)CO` (stereo partly drawn) [234 (W420)], for which the IC50 in test [2] was 51 nM; in test [3], over 10000 nM; in test [4], 66.2 nM.
For `COc1nc(C(F)(F)F)ccc1Oc1ccc(CNc2nc3c4c(n2)N(C)[C@@H](C)C(=O)N4CCC3)cn1` [231 (W417)], the IC50 in test [1] was under 0.5 nM; in test [2], 1.6 nM; in test [3], over 10000 nM; in test [4], under 0.5 nM.
For the compound `[2H]C([2H])([2H])N1c2nc(NCc3ccc(Oc4cc(C(F)(F)F)nn4CC)nc3)nc3c2N(CCC3)C(=O)[C@@H]1COC` [201 (W360)], the IC50 is 6 nM in test [1]; 3.6 nM in test [2]; over 10000 nM in test [3]; 51 nM in test [5]; 14 nM in test [4].
Regarding `[2H]C([2H])([2H])OC[C@@]1(C)C(=O)N2CCCc3nc(NCc4ccc(Oc5ccc(C(F)(F)F)nc5)nc4)nc(c32)N1C([2H])([2H])[2H]` [182 (W395)], the IC50 in test [1] was 7 nM; in test [2], 10.9 nM; in test [3], over 10000 nM; in test [4], 24 nM.
With `CN1c2nc(NCc3ccc(Oc4cnc(C(F)(F)F)nc4)nc3)nc3c2N(CCC3)C(=O)C1CC(F)(F)F` (stereo not drawn) [198 (W307)], the IC50 in test [1] was 17 nM; in test [2] it was 8.8 nM; in test [3], over 10000 nM; in test [4] it was 2.3 nM.
For `C[C@H]1C(=O)N2CCCc3nc(NCc4cnn(Cc5cc(C(F)(F)F)nn5C5CC5)c4)nc(c32)N1C` [230 (W415)], the IC50 in test [2] is 42 nM; in test [3] it was over 10000 nM; in test [4] it was 50.8 nM.
For `[2H]C([2H])([2H])N1c2nc(NCc3ccc(Oc4cnc(C(F)(F)F)nc4)nc3)nc3c2N(CCC3)C(=O)C1CC(F)(F)F` (stereo not drawn) [192 (W324)], the IC50 in test [1] is 23 nM; in test [2], 3.2 nM; in test [3] it was over 10000 nM; in test [5], 12 nM; in test [4] it was 4 nM.
In the case of `COCC[C@H]1C(=O)N2CCCc3nc(NCc4ccc(Oc5ccc(C(F)(F)F)nc5)nc4)nc(c32)N1C` [214 (W392)], the IC50 in test [2] was 34 nM; in test [3], over 10000 nM; in test [5], 82 nM; in test [4], 9.6 nM.
On to `CN1c2nc(NCc3ccc(Oc4cc(C(F)(F)F)nn4C4CC4)nc3)nc3c2N(CCC3)C(=O)[C@@H]1CO` [205 (W379)], for which the IC50 in test [1] was 37 nM; in test [2], 14.8 nM; in test [3], over 10000 nM; in test [5], 67 nM; in test [4] it was 5.6 nM.
On the same counts, the results for `C[C@@H](O)[C@H]1C(=O)N2CCCc3nc(NCc4ccc(Oc5cc(C(F)(F)F)nn5C5CC5)nc4)nc(c32)N1C` [206 (W388)] are 24 nM, 10 nM, over 10000 nM, 90 nM and 49 nM.
As for `COc1nc(C(F)(F)F)ccc1Oc1ccc(CNc2nc3c4c(n2)N(C)[C@@](C)(CO)C(=O)N4CCC3)cn1` [232 (W418)], the IC50 in test [1] was 5.5 nM; in test [2], 4 nM; in test [3], over 10000 nM; in test [4], under 0.5 nM.
